Source: patent US10934298B2, “Substituted pyrazolo[1,5-a]pyrimidines for the treatment of medical disorders” (BIAL—BioTech Investments, Inc., priority 2016, dated 2021)
In brackets after ≈: the same amount, converted by molar mass. Read-outs that look alike come from different tables or passages of the source.

Columns and labels:
[1] = molecular target: T1, glucocerebrosidase (Gcase) (Homo sapiens, UniProt P04062); experiment: Glucocerebrosidase (Gcase) activation assay with 4-methylumbelliferyl-beta-D-glucopyranoside substrate, saposin C and phosphatidylserine/triton micelles, fluorescence readout; format: biochemical; settings: for Percent Gease Activation, 0.1 μM Test Compound / Percent Gease Activation, 1 μM Test Compound: Table 4
T1 construct: micellar solution containing 10 nM GCase and 100 nM saposin C
T1 sequence (P04062 40-536): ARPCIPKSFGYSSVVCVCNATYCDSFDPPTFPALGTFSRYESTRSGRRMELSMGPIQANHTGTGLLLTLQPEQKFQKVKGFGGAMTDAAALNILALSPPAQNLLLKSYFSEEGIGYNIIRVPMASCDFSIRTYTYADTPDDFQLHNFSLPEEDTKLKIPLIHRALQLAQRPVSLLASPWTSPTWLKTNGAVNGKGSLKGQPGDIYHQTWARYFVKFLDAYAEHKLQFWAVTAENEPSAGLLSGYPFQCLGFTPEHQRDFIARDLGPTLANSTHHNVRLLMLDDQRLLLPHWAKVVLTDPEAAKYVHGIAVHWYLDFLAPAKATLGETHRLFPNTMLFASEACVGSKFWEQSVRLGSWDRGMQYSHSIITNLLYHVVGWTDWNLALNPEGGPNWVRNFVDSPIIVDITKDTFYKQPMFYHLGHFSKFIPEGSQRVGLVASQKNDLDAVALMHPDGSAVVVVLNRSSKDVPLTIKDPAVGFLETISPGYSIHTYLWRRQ
How it was run: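 10 nM GCase with 100 nM saposin C pre-incubated 30 min with compound in pH 4.7 phosphate/citrate PS/triton micelles, then mixed 1:1 with 2 mM 4-methylumbelliferyl-β-glucoside micellar substrate (stock level). Run 15 min at room temperature, stopped at pH 12.5; fluorescence 365/440 nm. Screened at 1.0 and 0.1 μM; 8-point curves from 5 μM.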

[2] = Compound solubility in water; format: physicochemical

Percent Gcase Activation, 0.1 μM Test Compound ([1]; 0.1 μM test compound)	Percent Gcase Activation, 1 μM Test Compound ([1]; 1 μM test compound)	SMILES	further results
–	–	Cc1cc(-c2ccccn2)nc2c(C(=O)N[C@@H](C)C3CC3)cnn12 [III-24]	Percent Gcase Activation, 0.1 μM Test Compound ([1]; 0.1 μM test compound, Table 3A): ** (Gcase activation in the range of 10% up to 20%); Percent Gcase Activation, 1 μM Test Compound ([1]; 1 μM test compound, Table 3A): +++ (Gcase activation greater than 60%); solubility ([2]; Table 3A): 8.1 µg/mL (≈ 25.2 µM)
–	–	Cc1cc(-c2cccnc2)nc2c(C(=O)N[C@@H](C)C3CC3)cnn12 [III-26]	Percent Gcase Activation, 0.1 μM Test Compound ([1]; 0.1 μM test compound, Table 3A): * (less than 10% Gcase activation); Percent Gcase Activation, 1 μM Test Compound ([1]; 1 μM test compound, Table 3A): ++ (Gcase activation in the range of 30% up to 60%); solubility ([2]; Table 3A): 26 µg/mL (≈ 80.9 µM)
–	–	COc1cccc(-c2cc(C)n3ncc(C(=O)NC(C4CC4)C(F)(F)F)c3n2)n1 (stereo not drawn) [III-105]	Percent Gcase Activation, 0.1 μM Test Compound ([1]; test compound at 0.1 μM): *** (greater than 20% Gcase activation); Percent Gcase Activation, 1 μM Test Compound ([1]; test compound at 1.0 μM): +++ (Gcase activation greater than 60%); solubility [2]: 0.08 µg/mL (≈ 0.197 µM)
–	–	Cc1cc(-c2ccc(Cl)nc2)nc2c(C(=O)N[C@@H](C3CC3)C(F)(F)F)cnn12 [III-118]	Percent Gcase Activation, 0.1 μM Test Compound ([1]; test compound at 0.1 μM): *** (greater than 20% Gcase activation); Percent Gcase Activation, 1 μM Test Compound ([1]; test compound at 1.0 μM): +++ (Gcase activation greater than 60%); solubility [2]: 0.4 µg/mL (≈ 0.976 µM)
–	–	Cc1cc(-c2cccc(F)n2)nc2c(C(=O)NC(C3CC3)C(F)(F)F)cnn12 (stereo not drawn) [III-130]	Percent Gcase Activation, 0.1 μM Test Compound ([1]; test compound at 0.1 μM): *** (greater than 20% Gcase activation); Percent Gcase Activation, 1 μM Test Compound ([1]; test compound at 1.0 μM): +++ (Gcase activation greater than 60%); solubility [2]: 0.2 µg/mL (≈ 0.508 µM)
–	–	Cc1cc(-c2ccc3ocnc3c2)nc2c(C(=O)NC(C3CC3)C(F)(F)F)cnn12 (stereo not drawn) [III-171]	Percent Gcase Activation, 0.1 μM Test Compound ([1]; test compound at 0.1 μM): *** (greater than 20% Gcase activation); Percent Gcase Activation, 1 μM Test Compound ([1]; test compound at 1.0 μM): +++ (Gcase activation greater than 60%); Compound Solubility in Water [2]: 0.4 µg/mL
* (less than 10% Gcase activation)	+++ (Gcase activation greater than 60%)	CO[C@H]1CC[C@@H]([C@@H](C)NC(=O)c2cnn3c(C)cc(C)nc23)CC1 [III-404]	–
*** (greater than 20% Gcase activation)	+++ (Gcase activation greater than 60%)	COc1cccc(-c2cc(C)n3ncc(C(=O)NC(C)(C)C(F)(F)F)c3n2)c1 [III-405]	–
*** (greater than 20% Gcase activation)	+++ (Gcase activation greater than 60%)	Cc1cc(-c2cccc(Cl)c2)nc2c(C(=O)NC(C)(C)C(F)(F)F)cnn12 [III-406]	–
* (less than 10% Gcase activation)	+ (less than 30% Gcase activation)	CCc1cc(-c2ccccn2)nc2c(C(=O)NC(C)(C)C(F)(F)F)cnn12 [III-407]	–
*** (greater than 20% Gcase activation)	+++ (Gcase activation greater than 60%)	COc1ccc(F)c(-c2cc(C)n3ncc(C(=O)NC(C)C(F)(F)F)c3n2)c1 (stereo not drawn) [III-409]	–
*** (greater than 20% Gcase activation)	+++ (Gcase activation greater than 60%)	COc1cc(F)cc(-c2cc(C)n3ncc(C(=O)NC(C)C(F)(F)F)c3n2)c1 (stereo not drawn) [III-410]	–
*** (greater than 20% Gcase activation)	+++ (Gcase activation greater than 60%)	Cc1cc(-c2ccns2)nc2c(C(=O)NC(C3CC3)C(F)(F)F)cnn12 (stereo not drawn) [III-411]	–
* (less than 10% Gcase activation)	+++ (Gcase activation greater than 60%)	C#CC(C)(C)NC(=O)c1cnn2c(C)cc(-c3ccns3)nc12 [III-412]	–
* (less than 10% Gcase activation)	+++ (Gcase activation greater than 60%)	Cc1cc(-c2cccc(C(=O)N(C)C)c2)nc2c(C(=O)NC(C3CC3)C(F)(F)F)cnn12 (stereo not drawn) [III-413]	–
* (less than 10% Gcase activation)	+++ (Gcase activation greater than 60%)	CNC(=O)c1cccc(-c2cc(C)n3ncc(C(=O)NC(C4CC4)C(F)(F)F)c3n2)c1 (stereo not drawn) [III-414]	–
*** (greater than 20% Gcase activation)	+++ (Gcase activation greater than 60%)	Cc1cc(-c2cccc(-c3ncco3)c2)nc2c(C(=O)NC(C3CC3)C(F)(F)F)cnn12 (stereo not drawn) [III-416]	–
*** (greater than 20% Gcase activation)	+++ (Gcase activation greater than 60%)	Cc1cc(-c2cccc(-c3ncccn3)c2)nc2c(C(=O)NC(C3CC3)C(F)(F)F)cnn12 (stereo not drawn) [III-417]	–
–	–	C#Cc1ccc(NC(=O)c2cnn3c(C)cc(C)nc23)cc1 [IV-1]	Percent Gease Activation, 0.1 μM Test Compound ([1]; 0.1 μM test compound): ** (Gcase activation in the range of 10% up to 20%); Percent Gease Activation, 1 μM Test Compound ([1]; 1 μM test compound): ++ (Gcase activation in the range of 30% up to 60%); Compound Solubility in Water ([2]; Table 4): <1.5 µg/mL
–	–	Cc1cc(C)n2ncc(C(=O)Nc3ccc(C#CCN(C)C)cc3)c2n1 [IV-2]	Percent Gease Activation, 0.1 μM Test Compound ([1]; 0.1 μM test compound): * (less than 10% Gcase activation); Percent Gease Activation, 1 μM Test Compound ([1]; 1 μM test compound): + (less than 30% Gcase activation)
–	–	Cc1cc(C)n2ncc(C(=O)Nc3ccc(N4CCCCC4)cc3)c2n1 [IV-3]	Percent Gease Activation, 0.1 μM Test Compound ([1]; 0.1 μM test compound): * (less than 10% Gcase activation); Percent Gease Activation, 1 μM Test Compound ([1]; 1 μM test compound): + (less than 30% Gcase activation); Compound Solubility in Water ([2]; Table 4): <1.5 µg/mL
–	–	Cc1cc(C)n2ncc(C(=O)Nc3ccc4c(c3)OCO4)c2n1 [IV-4]	Percent Gease Activation, 0.1 μM Test Compound ([1]; 0.1 μM test compound): * (less than 10% Gcase activation); Percent Gease Activation, 1 μM Test Compound ([1]; 1 μM test compound): ++ (Gcase activation in the range of 30% up to 60%)
–	–	Cc1cc(C)n2ncc(C(=O)Nc3ccc4c(c3)CCC4)c2n1 [IV-5]	Percent Gease Activation, 0.1 μM Test Compound ([1]; 0.1 μM test compound): ** (Gcase activation in the range of 10% up to 20%); Percent Gease Activation, 1 μM Test Compound ([1]; 1 μM test compound): +++ (Gcase activation greater than 60%)

SMILES	Percent Gcase Activation, 0.1 μM Test Compound ([1]; 0.1 μM test compound)	Percent Gcase Activation, 1 μM Test Compound ([1]; 1 μM test compound)	further results
CO[C@H]1CC[C@H]([C@@H](C)NC(=O)c2cnn3c(C)cc(C)nc23)CC1 [III-403]	* (less than 10% Gcase activation)	++ (Gcase activation in the range of 30% up to 60%)	–
Cc1cc(-c2ccccn2)nc2c(C(=O)NC(C)(C)C(F)(F)F)cnn12 [III-408]	** (Gcase activation in the range of 10% up to 20%)	+++ (Gcase activation greater than 60%)	–
Cc1cc(-c2cccc(-n3cccn3)c2)nc2c(C(=O)NC(C3CC3)C(F)(F)F)cnn12 (stereo not drawn) [III-415]	*** (greater than 20% Gcase activation)	++ (Gcase activation in the range of 30% up to 60%)	–
